This note sets out measurements from patent publication US10800770B1, “Chroman derivatives having estrogen receptor degradation activity and uses thereof” (ACCUTAR BIOTECHNOLOGY INC., priority 2019, dated 2020).

The target of the experiment is T1, ERα (Homo sapiens, UniProt P03372).
T1 construct: endogenous in cells; host or cells: T47D
T1 sequence (P03372 1-595): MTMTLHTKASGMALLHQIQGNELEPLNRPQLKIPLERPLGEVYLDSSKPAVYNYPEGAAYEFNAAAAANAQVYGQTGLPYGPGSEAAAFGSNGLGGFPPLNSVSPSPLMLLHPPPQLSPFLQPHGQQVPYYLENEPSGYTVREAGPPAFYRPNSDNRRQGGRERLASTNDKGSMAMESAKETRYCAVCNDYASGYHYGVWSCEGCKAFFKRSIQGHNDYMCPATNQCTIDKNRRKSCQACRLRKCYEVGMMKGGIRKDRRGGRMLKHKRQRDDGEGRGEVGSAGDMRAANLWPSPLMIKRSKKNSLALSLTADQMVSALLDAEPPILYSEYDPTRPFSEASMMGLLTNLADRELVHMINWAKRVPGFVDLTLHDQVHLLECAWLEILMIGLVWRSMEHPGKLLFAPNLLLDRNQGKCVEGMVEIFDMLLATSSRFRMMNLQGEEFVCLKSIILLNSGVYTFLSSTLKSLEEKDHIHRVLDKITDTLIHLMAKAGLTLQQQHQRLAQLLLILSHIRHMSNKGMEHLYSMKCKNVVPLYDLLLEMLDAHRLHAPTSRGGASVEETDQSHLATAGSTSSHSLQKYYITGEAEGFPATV
Kind of experiment: ERα degradative activity in T47D cells (Western blot, 6 hours after administration). The experiment is classed as cell-based. The conditions noted are these: T47D cell line, ERα degradation. As for the experimental part: T47D cells were plated in 24-well plates at 1.5×10^5 cells/well in the RPMI growth medium containing 10% FBS and 1× Penicillin Streptomycin. MCF7 cells were plated in 24-well plates at 1.5×10^5 cells/well in the DMEM growth medium containing 10% FBS and 1× Penicillin Streptomycin. CAMA1 cells were plated in 24-well plates at 2×10^5 cells/well in the RPMI growth medium containing 20% FBS and 1× Penicillin Streptomycin. They were then incubated at 37° C. overnight. The following day, the test compound was administered to the cells by using 1000× compound stock solution prepared in DMSO at various concentrations. After administration of the compound, the cells were then incubated at 37° C. for 6 hours.
Upon completion, the cells were washed with PBS and protein was collected in Laemmli sample buffer (1×; VWR International). Proteins in cell lysate were separated by SDS-PAGE and transferred to Odyssey nitrocellulose membranes (Licor) with Iblot® dry blotting transfer system (ThermoFisher). Nonspecific binding was blocked by incubating membranes with Intercept Blocking Buffer (Licor) for 1 hour at room temperature with gentle shaking. The membranes were then incubated overnight at 4° C. with Primary antibodies rabbit anti-ER (Cell Signaling, 8644) and mouse anti-GAPDH (1:5,000, Santa Cruz Biotechnology, sc-47724) diluted in Intercept Blocking Buffer containing 0.1% Tween 20. After washing 3 times with TBS-T, the membranes were incubated with IRDye® 800CW goat anti-mouse IgG (1:20,000, Licor) or IRDye® 800CW goat anti-rabbit IgG (1:20,000, Licor) for 1 hour. After TBS-T washes, membranes were rinsed in TBS and scanned on Odyssey® CLx Imaging System (Licor). The bands were quantified using Image Studio™ Software (Licor).

As for `COc1ccc(C2COc3cc(O)ccc3[C@H]2c2ccc(N3CCC(CN4CCN(c5cc6c(cc5F)C(=O)N([C@H]5CCC(=O)NC5=O)C6)CC4)CC3)cc2)cc1` (relative stereo) [Compound 90, cis-(S)-3-(6-fluoro-5-(4-((1-(4-(7-hydroxy-3-(4-methoxy-phenyl)chroman-4-yl)phenyl)piperidin-4-yl)methyl)piperazin-1-yl)-1-oxoisoindolin-2-yl)piperidine-2,6-dione], the DC50 worked out at 9.6 nM.
